The test system of test [1] is Reserpine induced catalepsy. Put plainly: Acute Reserpine induced catalepsy test. Conditions: vs only Reserpine-treated animals. It counts as in vivo, rat. The procedure: (§1) Animals were administered with Reserpine or CGS-21680 according to methods known to the skilled person in the art. These models and procedures are e.g. described by Ferré S. et al., Neurosci. Let., 1991, 130, 162; Ferré S. et al., Neuroscience, 1992, 51, 501; Kafka S. H. et al., Eur. J. Pharmacol., 1996, 295, 147; Rimondini R. et al., Neuropsychopharmacology, 1997, 17, 82 and are herein incorporated by reference. In the acute CGS-21680 induced catalepsy model (CGS model) the test compounds (TC, compounds according to the present invention) and CGS-21680 (i.p. 2 mg/kg) were administered 60 minutes before the start of the catalepsy bar measurement and behavioural testing described below (see also FIG. 1). In the acute Reserpine induced catalepsy model (RES model Resperine (subcutaneously, 3 mg/kg) was injected 24 h prior to the test compound application. Catalepsy bar measurement took place 60 minutes after test compound application (see FIG. 1). Test compounds were administered i.p. in DMSO in following doses (mg/kg): 0.1, 0.3, 1, 3, 10.
(§2) Dimethylsulfoxide (DMSO) was used as vehicle for the test compounds and Reserpine. Reserpine was dissolved in DMSO in a concentration of 3 mg/ml. A 10% (w/v) Cyclodextrin solution was used as vehicle for CGS-21680. CGS 21680 was dissolved in 10% (w/v) Cyclodextrine in a concentration of 2 mg/ml.
Apomorphine was used as a reference compound in the Reserpine induced catalepsy model. Apomorphine injection solution was diluted with purified water to a concentration of 0.3 mg/ml. The solution was administered subcutaneously (s.c.) in a volume of 1 ml/kg (0.3 mg/kg) 20 minutes before the begin of testing after Reserpine pre-treatment (25 hours prior to testing).
The catalepsy bar after Reserpine administration was measured (CAT) as follows: The rat was placed with its forepaws on a log of wood. […] The animal was tested for three trials and the time for each trial was noted. The following parameters were calculated: maximum time to descend (s) and median time to descend (s). […]
(§3) All statistical tests were performed two tailed with a value of p<0.05 considered as significant.
(§4) To assess the effects of CGS-21680 and Reserpine pre-treatment compared to vehicle treated controls statistical comparisons between the test groups were performed using a U test statistic.
To assess the effects of test compounds on CGS-21680 and Reserpine pre-treated animals correlation analyses including animals from test groups and the respective test compound-treated groups were performed.
Additionally, parametric and non-parametric comparisons for the median catalepsy measure were performed to assess the reliability of the method. In case of parametric testing a GLM analyses was performed including animals from a control group (only vehicle treated animals) and the respective test compound-treated groups with dose as a categorical factor. In case of a significant result, a Dunnett's post hoc test was performed between the according test compound groups and a control group as reference group. In case of non-parametric testing a Kruskal-Wallis H-test was performed including animals from a control group and the respective test compound groups. In case of a significant result single U-test comparisons were performed between a control group and the groups treated with different doses of the test compound.

Test [2] deals with CGS-21680 induced catalepsy. Put plainly: Acute CGS-21680 induced catalepsy test. It counts as in vivo, rat. Conditions: vs only CGS-21680-treated animals. The procedure: as §1, §2
Caffeine was used as a reference compound in the CGS-21680 induced catalepsy model. A caffeine solution was prepared with water for injection purposes to a concentration of 30 mg/ml. The solution was administered intraperitoneally in a volume of 1 ml/kg (30 mg/kg) 30 minutes before the beginning of testing and after CGS-21680 pre-treatment (1 hour prior to testing).
The catalepsy bar after CGS-21680 administration was measured (CAT) as follows: The rat was placed with its forepaws on a log of wood. […] If the animal descended faster than 1 second, the trial was regarded as invalid. If more than 20 trials were rated as invalid, the values of all uncompleted trials were noted as 0. The animal was tested until five trials had been completed and the time for each trial was noted. Only the values of the last three trials were used for the analysis. The following parameters were calculated: maximum time to descend (s) and median time to descend (s).
Behavioural observation (BO) included the measurement of the body tone, inclined plane and grip strength.
The rat is taken in the hand of the observer and the animal's body tone is rated as normal, soft or hard. The rating is performed immediately after taking the animal from its home cage before performance of catalepsy testing. The following parameters were calculated: mean occurrence of hard body tone and mean occurrence of soft body tone.
The rat is horizontally placed to an inclined plane for a maximum time of 30 seconds. Time to reach bottom or top is measured. […] The test is performed after catalepsy testing. Time to leave the inclined plane(s) was measured.
The rat is put on a grip and the observer pulls the animal back on his tail. The strength (fore paws and hind paws) by which it holds on the grid is scored as grasping and pulling, grasping without pulling or no grasping. The test is performed after the inclined plane test. The following parameters were calculated: mean score of fore paw grip strength and mean score of hind paw grip strength.
as §3, §4
To assess the effects of test compounds on CGS-21680 and Reserpine pre-treated animals correlation analyses including animals from test groups and the respective test compound-treated groups were performed. […]

Test [3] concerns the target T1, A2A adenosine receptors from rat striatum (Rattus norvegicus, UniProt P30543).
T1 construct: A2A adenosine receptors from rat striatum; from tissue; host or cells: rat striatum
Put plainly: Sodium chloride-shift experiment. Conditions: for Sodium Chloride-Shift Ki (+NaCl)/Ki (−NaCl): ratio. In kind it is binding. The procedure: The compounds were tested in a sodium chloride-shift experiment of whether they are functionally coupled to A2A adenosine receptors from rat striatum. […] The presence of a relatively high concentration of sodium chloride should not influence the affinity of the antagonists. However, the affinity of A2A AR agonists should be attenuated and therefore lead to an elevated IC50-value. […] This confirms the A2A-antagonistic function of the compounds. (Gao et al, Biochem. Pharmacol., 2000, 60, 669, herein incorporated by reference).

The target in the next test is T2, Adenosine A1 (Homo sapiens, UniProt P30542).
T2 sequence (P30542 1-326): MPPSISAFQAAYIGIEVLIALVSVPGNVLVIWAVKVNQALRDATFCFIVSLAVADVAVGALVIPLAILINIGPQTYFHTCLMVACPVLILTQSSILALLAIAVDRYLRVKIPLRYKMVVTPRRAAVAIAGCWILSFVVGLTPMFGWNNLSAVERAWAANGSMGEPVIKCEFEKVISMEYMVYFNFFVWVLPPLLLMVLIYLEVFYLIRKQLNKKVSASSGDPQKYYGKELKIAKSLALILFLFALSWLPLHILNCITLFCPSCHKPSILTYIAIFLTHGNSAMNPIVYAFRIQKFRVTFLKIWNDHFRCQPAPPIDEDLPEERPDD
Put plainly: Functional assay (luciferase reporter), inhibition of A1 adenosine receptor. More on the design: expressed in transfected cells; host or cells: CHO-DUKX-SRE-Luci-A1-44 (CHO-DUKX, vector pCineo). It counts as cell-based. Particulars: for A1 AR Imax: Imax in % of the corresponding antagonist (CPX); for IC50: read-out: A1 AR IC50; for Ki: read-out: A1 AR Ki.

The next test concerns the target Adenosine A2A (Homo sapiens, UniProt P29274). Put plainly: Functional assay (luciferase reporter), inhibition of A2A adenosine receptor. It counts as cell-based. On the set-up: expressed in transfected cells; host or cells: CHO-DUKX-CRE-A2A-19 (CHO-DUKX, vector pCineo). Particulars: for IC50: CHO-DUKX-CRE-A2A-19 cells, 60 nM NECA, read-out: A2A AR IC50; for A2A AR Imax: Imax in % of the corresponding antagonist; for Ki: Ki=IC50/(1+agonist concentration/EC50), read-out: A2A AR Ki. For orientation: A reporter such as luciferase makes a cellular process visible.

[4] abbreviates: Ki (+100 mM NaCl) rA2A rat striatum [3H] MSX-2 (n = 3), +100 mM NaCl.
Where [5] appears, read: Ki rA2A rat striatum [3H] MSX-2 (n = 3), without NaCl.
The mark [6] stands for this setting: CHO-DUKX-SRE-Luci-A1-44 cells, 3.5 μM ADAC.
[7] abbreviates: Ki=IC50/(1+agonist concentration/EC50).

Chain of Adenosine A2A (P29274 whole entry): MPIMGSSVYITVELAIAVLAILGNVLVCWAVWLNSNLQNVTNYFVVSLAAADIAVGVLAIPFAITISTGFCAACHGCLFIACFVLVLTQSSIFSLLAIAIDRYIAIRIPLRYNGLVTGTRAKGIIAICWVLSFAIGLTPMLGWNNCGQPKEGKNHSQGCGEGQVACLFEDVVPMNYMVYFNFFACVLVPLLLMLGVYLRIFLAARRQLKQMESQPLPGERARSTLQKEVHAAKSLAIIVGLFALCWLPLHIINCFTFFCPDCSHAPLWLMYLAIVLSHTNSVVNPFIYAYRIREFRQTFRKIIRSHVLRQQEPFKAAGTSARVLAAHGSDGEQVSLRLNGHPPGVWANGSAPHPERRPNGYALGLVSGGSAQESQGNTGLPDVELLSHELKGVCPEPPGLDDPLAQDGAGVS
T1 sequence (P30543 whole entry): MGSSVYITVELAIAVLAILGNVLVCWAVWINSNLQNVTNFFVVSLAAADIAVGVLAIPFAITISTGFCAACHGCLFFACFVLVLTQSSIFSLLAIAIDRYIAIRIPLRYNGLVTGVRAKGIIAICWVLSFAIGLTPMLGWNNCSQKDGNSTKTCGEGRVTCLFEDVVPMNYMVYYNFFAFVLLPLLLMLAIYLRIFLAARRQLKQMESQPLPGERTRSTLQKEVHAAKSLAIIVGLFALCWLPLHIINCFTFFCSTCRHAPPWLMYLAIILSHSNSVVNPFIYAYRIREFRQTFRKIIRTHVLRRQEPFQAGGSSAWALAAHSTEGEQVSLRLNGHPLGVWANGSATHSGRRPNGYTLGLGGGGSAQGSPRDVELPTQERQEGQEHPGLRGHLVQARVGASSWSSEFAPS

In the case of `CN1CCc2cccc3c2[C@H]1Cc1ccc(O)c(O)c1-3` [apomorphine, Apomorphine, reference compound], in test [1], the “maximum catalepsy values after Reserpine treatment” value is “decreased” and the “median catalepsy values after Reserpine treatment” value is reported as “decreased”.

Consider `Cn1c(=O)c2c(ncn2C)n(C)c1=O` [caffeine, 1,3,7-trimethylxanthine, reference compound], for which, in test [2], the “hard body tone after CGS-21680 treatment” value was “increased”, the “maximum catalepsy values after CGS-21680 treatment” value is reported as “significantly decreased”, the “median catalepsy values after CGS-21680 treatment” value is given as “significantly decreased” and the “soft body tone after CGS-21680 treatment” value is “decreased”.

On to `C#CCn1c(=O)c2c(nc(C#Cc3cccc(OC)c3)n2C)n(C)c1=O` [drawing 614], for which the figures for the inhibition constant Ki in test [3] (setting [4]) and in test [3] (setting [5]) were 33.2 ± 9.9 nM and 30.9 ± 8 nM, respectively. Besides, the “Sodium Chloride-Shift Ki (+NaCl)/Ki (−NaCl)” value (“Sodium Chloride-Shift Ki” for short) in test [3] was found to be 0.97 ± 0.03.

As to `C#CCn1c(=O)c2c(nc(C#Cc3cccc(C)c3)n2C)n(C)c1=O` [drawing 615], the Ki (commonly the equilibrium dissociation constant of an inhibitor or competing ligand from its target) turned out to be 53.1 ± 5.9 nM in test [3] (setting [4]) and 43.4 ± 11.6 nM in test [3] (setting [5]). The “Sodium Chloride-Shift Ki” value in test [3] turned out to be 1.19 ± 0.16.

With `C#CCn1c(=O)c2c(nc(C#Cc3cccc(Cl)c3)n2C)n(C)c1=O` [drawing 616], the Ki in test [3] (setting [4]) worked out at 39.5 ± 13.1 nM; in test [3] (setting [5]) it was 46 ± 9 nM. The “Sodium Chloride-Shift Ki” value in test [3] amounted to 0.82 ± 0.13.

For the compound `C#CCn1c(=O)c2c(nc(C#Cc3ccc(OC)c(OC)c3)n2C)n(C)c1=O` [drawing 619], the “A1 AR IC50” value at Adenosine A1 (setting [6]) was “Nosignificantactivitydetected”. The “A1 AR Imax” value at Adenosine A1 is reported as “Nosignificantactivitydetected”. For the same compound, at Adenosine A1 (setting [7]), the “A1 AR Ki” value is given as “Nosignificantactivitydetected”. Also, on Adenosine A2A, the IC50 (in general, the point on the concentration scale where inhibition reaches its midpoint) turned out to be 600 nM; the “A2A AR Imax” value amounted to 95%; the inhibition constant (Ki) was determined as 58 nM.

Regarding `C#CCn1c(=O)c2c(nc(C#Cc3cccc(OC)c3)n2C)n(CCCO)c1=O` [drawing 620], the IC50 at Adenosine A1 (setting [6]) was found to be 1700 nM. For the same compound, the “A1 AR Imax” value on Adenosine A1 was 90%. Besides, the inhibition constant (Ki) on Adenosine A1 (setting [7]) came to 370 nM. Further, at Adenosine A2A, the IC50 turned out to be 900 nM, the “A2A AR Imax” value is listed as 117% and the Ki amounted to 82 nM.

Consider `C#CCn1c(=O)c2c(nc(C#Cc3cccc(OC)c3)n2CC#C)n(C)c1=O` [drawing 621], for which the IC50 on Adenosine A1 (setting [6]) was found to be 2300 nM; at Adenosine A2A, 500 nM. In addition, the “A1 AR Imax” value on Adenosine A1 is on record as 55%. Also, the Ki came out at 501 nM at Adenosine A1 (setting [7]) and 47 nM on Adenosine A2A. Moreover, the “A2A AR Imax” value on Adenosine A2A is reported as 86%.

With `C#CCn1c(=O)c2c(nc(C#Cc3ccc(OC)c(OC)c3)n2C)n(CCCO)c1=O` [drawing 622], on Adenosine A1 (setting [6]), the IC50 was determined as 1800 nM. Also, the “A1 AR Imax” value at Adenosine A1 was 92%. The Ki on Adenosine A1 (setting [7]) was found to be 401 nM. On Adenosine A2A, the 50% inhibitory concentration (IC50) was determined as 300 nM, the “A2A AR Imax” value worked out at 117% and the inhibition constant Ki is 26 nM.

For `C#CCn1c(=O)c2c(nc(C#Cc3cccc(C)c3)n2C)n(CCCO)c1=O` [drawing 623], the half-inhibitory concentration (IC50) on Adenosine A1 (setting [6]) was 1300 nM. In addition, the “A1 AR Imax” value on Adenosine A1 amounted to 102%. Also, the inhibitory constant (Ki) at Adenosine A1 (setting [7]) is 289 nM. Also, on Adenosine A2A, the IC50 amounted to 400 nM, the “A2A AR Imax” value is 109% and the Ki was found to be 40 nM.
